Converted amounts (≈) assume the structure as drawn. Read-outs that look alike come from different tables or passages of the source.
Tests used:
IMP-1 [1] = biological target: T1, IMP-1 (Serratia marcescens, UniProt P52699); assay: β-lactamase inhibition assay, nitrocefin substrate; format: biochemical
NDM-1 = NDM-1 (Klebsiella pneumoniae, UniProt C7C422); assay: biochemical
[2] = system: E. coli CDC-0055 (NDM-1, CMY-6, OXA-1); assay: MIC, rescue of β-lactams in MDR clinical isolates; format: cell-based; settings: Escherichia coli
[3] = system: K. pneumoniae CDC-0040 (VIM-27, CTX-M-15, SHV-11, OXA-1); assay: MIC, rescue of β-lactams in MDR clinical isolates; format: cell-based; settings: Klebsiella pneumoniae
[4] = system: K. pneumoniae ATCC BAA 1705 (KPC-2); assay: MIC, rescue of β-lactams in MDR clinical isolates; format: cell-based; settings: Klebsiella pneumoniae
[5] = system: K. pneumoniae CDC-0066 (OXA-232, OXA-9, TEM-1A, CTX-M-15, OXA-1); assay: MIC, rescue of β-lactams in MDR clinical isolates; format: cell-based; settings: Klebsiella pneumoniae
[6] = system: E. coli UNT-057-1 expressing CTX-M-15; assay: mouse ascending urinary tract infection model; format: in vivo; settings: mice, at day 7; BID s.c.; cefepime alone, cefepime/VNRX-5133 16:8, Caz/Avi 16:4 mg/kg/dose
K. pneumoniae (CTX-M-14) = assay: MIC against the lung model strain; format: cell-based; settings: Klebsiella pneumoniae
[7] = system: K. pneumoniae CDC-0361 (KPC-2, SHV-12, TEM-1); assay: MIC, rescue of β-lactams in MDR clinical isolates; format: cell-based; settings: Klebsiella pneumoniae
E. coli (CTX-M-15) = assay: MIC against the urinary tract model strain; format: cell-based; settings: Escherichia coli
[8] = system: P. aeruginosa CDC-0356 (KPC-2, PDC-42); assay: MIC, rescue of β-lactams in MDR clinical isolates; format: cell-based; settings: Pseudomonas aeruginosa
[9] = system: P. aeruginosa CDC-0457 (VIM); assay: MIC, rescue of β-lactams in MDR clinical isolates; format: cell-based; settings: Pseudomonas aeruginosa
[10] = system: K. pneumoniae UNT-065-1 expressing CTX-M-14; assay: neutropenic mouse lung infection model; format: in vivo; settings: neutropenic mice
E. coli CDC-0452 (NDM) = assay: MIC, rescue of β-lactams in MDR clinical isolates; format: cell-based; settings: Escherichia coli
VIM-2 = VIM-2 (Escherichia coli, UniProt Q5U7L7); assay: β-lactamase inhibition assay, nitrocefin substrate; format: biochemical; settings: in our hands
S. aureus 29213 (W/T) = assay: intrinsic antibacterial activity, MIC; format: cell-based; settings: Staphylococcus aureus
L1 = system: L1; design: method as in PMID 31454231; settings: cited from earlier work
[11] = system: E. cloacae 144200 (p99 AmpC); assay: intrinsic antibacterial activity, MIC; format: cell-based; settings: Enterobacter cloacae
CphA = settings: read-out: IC50 subclass B2 MBL CphA; cited from earlier work
[12] = system: K. pneumoniae UMM (SHV5, KPC-2, TEM-1); assay: intrinsic antibacterial activity, MIC; format: cell-based; settings: Klebsiella pneumoniae
neutrophil elastase 2 = neutrophil elastase 2 (Homo sapiens, UniProt P08246); assay: selectivity panel at 100 μM; format: biochemical
Sequence of neutrophil elastase 2 (P08246 30-267): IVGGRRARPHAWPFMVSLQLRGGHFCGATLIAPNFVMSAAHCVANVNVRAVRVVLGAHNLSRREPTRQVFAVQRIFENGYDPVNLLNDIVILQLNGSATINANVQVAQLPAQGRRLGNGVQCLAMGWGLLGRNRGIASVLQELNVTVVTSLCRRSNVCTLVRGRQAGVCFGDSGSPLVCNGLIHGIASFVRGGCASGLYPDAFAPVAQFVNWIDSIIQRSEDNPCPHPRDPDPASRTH
Description: (§1) The panel included serine proteases (i.e., cathepsin G, chymotrypsin, Factor Xa, trypsin, and neutrophil elastase 2), metalloproteinases (MMP-1, -2, -3, and -9), cytochrome P450s (1A2, 2C9, 2C19, 2D6, and 3A4), and the hERG potassium channel.

MMP-2 = MMP-2 (Homo sapiens, UniProt P08253); assay: selectivity panel at 100 μM; format: biochemical
Description: as §1

MMP-1 = MMP-1 (Homo sapiens, UniProt P03956); assay: selectivity panel at 100 μM; format: biochemical
Sequence of MMP-1 (P03956 100-469): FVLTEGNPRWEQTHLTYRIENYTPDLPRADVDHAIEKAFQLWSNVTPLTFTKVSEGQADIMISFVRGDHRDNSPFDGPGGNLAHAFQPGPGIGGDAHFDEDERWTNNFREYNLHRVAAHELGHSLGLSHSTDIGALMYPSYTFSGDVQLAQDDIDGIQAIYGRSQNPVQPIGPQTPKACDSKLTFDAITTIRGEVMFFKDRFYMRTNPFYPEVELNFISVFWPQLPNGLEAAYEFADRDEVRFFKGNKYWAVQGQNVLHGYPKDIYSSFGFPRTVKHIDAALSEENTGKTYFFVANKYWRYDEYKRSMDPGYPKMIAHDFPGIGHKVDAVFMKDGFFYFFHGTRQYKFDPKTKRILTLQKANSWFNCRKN
Description: as §1

cathepsin G = cathepsin G (Homo sapiens, UniProt P08311); assay: selectivity panel at 100 μM; format: biochemical
Sequence of cathepsin G (P08311 21-255): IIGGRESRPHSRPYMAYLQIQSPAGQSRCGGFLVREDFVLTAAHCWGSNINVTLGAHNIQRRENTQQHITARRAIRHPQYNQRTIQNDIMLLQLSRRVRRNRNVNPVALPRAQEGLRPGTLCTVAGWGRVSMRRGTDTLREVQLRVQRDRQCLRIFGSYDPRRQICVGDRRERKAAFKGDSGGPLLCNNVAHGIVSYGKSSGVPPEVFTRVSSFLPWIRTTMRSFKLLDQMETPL
Description: as §1

MMP-3 = MMP-3 (Homo sapiens, UniProt P08254); assay: selectivity panel at 100 μM; format: biochemical
Sequence of MMP-3 (P08254 100-477): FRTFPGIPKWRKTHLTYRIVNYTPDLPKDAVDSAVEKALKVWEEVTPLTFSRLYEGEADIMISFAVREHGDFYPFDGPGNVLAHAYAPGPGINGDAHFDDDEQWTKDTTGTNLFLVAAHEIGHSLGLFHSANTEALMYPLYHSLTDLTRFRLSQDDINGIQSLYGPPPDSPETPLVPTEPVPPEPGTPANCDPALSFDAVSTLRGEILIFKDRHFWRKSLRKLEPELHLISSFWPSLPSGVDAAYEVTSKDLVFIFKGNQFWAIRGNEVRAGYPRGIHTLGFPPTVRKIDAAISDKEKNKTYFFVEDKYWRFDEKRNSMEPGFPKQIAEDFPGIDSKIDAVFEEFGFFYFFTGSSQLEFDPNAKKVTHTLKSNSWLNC
Description: as §1

MMP-9 = MMP-9 (Homo sapiens, UniProt P14780); assay: selectivity panel at 100 μM; format: biochemical
Sequence of MMP-9 (P14780 94-707): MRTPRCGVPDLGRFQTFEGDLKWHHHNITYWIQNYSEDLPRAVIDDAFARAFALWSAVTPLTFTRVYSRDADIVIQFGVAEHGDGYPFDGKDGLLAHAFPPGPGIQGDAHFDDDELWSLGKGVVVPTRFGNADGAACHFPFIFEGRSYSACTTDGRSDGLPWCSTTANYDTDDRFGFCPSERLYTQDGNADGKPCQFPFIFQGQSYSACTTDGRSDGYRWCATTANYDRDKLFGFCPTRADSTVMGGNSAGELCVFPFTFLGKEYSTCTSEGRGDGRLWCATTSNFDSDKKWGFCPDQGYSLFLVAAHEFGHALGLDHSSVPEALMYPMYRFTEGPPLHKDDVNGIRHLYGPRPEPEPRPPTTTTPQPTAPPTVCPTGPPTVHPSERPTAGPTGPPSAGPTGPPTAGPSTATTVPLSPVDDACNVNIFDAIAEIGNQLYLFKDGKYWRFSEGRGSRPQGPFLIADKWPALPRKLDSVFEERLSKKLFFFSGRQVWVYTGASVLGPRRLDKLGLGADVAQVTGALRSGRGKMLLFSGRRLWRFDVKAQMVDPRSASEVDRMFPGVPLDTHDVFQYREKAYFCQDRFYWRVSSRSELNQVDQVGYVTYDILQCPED
Description: as §1

Factor Xa = biological target: T2, Factor Xa (Homo sapiens, UniProt P00742); assay: selectivity panel at 100 μM; format: biochemical
T2 construct: serine proteases (i.e., cathepsin G, chymotrypsin, Factor Xa, trypsin, and neutrophil elastase 2)
T2 sequence (P00742 235-488 limits assumed): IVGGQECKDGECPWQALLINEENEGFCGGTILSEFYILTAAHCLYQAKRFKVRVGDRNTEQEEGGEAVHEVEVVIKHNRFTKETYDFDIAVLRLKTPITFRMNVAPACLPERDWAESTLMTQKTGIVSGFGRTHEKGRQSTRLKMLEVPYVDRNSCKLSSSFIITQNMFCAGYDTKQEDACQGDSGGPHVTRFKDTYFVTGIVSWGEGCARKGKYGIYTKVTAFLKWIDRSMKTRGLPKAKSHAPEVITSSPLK
T2 sequence (P00742 41-179 partner limits assumed): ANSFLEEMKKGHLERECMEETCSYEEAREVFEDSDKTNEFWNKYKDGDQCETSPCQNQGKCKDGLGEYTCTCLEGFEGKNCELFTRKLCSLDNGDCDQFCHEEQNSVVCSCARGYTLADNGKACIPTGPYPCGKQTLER
Description: as §1

[13] = system: E. coli J53 (SHV5, AmpC, TEM-1); assay: intrinsic antibacterial activity, MIC; format: cell-based; settings: Escherichia coli
[14] = system: E. aerogenes 188548 (AmpC); assay: intrinsic antibacterial activity, MIC; format: cell-based; settings: Klebsiella aerogenes
[15] = system: human primary renal proximal tubule cells; assay: toxicity in renal proximal tubule cells; format: cell-based; settings: tested up to 1000 μg/mL
chymotrypsin = assay: selectivity panel at 100 μM; format: biochemical, human
Description: as §1

trypsin = assay: selectivity panel at 100 μM; format: biochemical, human
Description: as §1

OXA-48 = OXA-48 (Klebsiella pneumoniae, UniProt Q6XEC0); settings: read-out: IC50 OXA-48, literature value in parentheses; cited from earlier work
[16] = preclinical toxicity evaluation
Description: NCT03840148 at ClinicalTrials.gov).

[17] = system: P. aeruginosa 27853 (W/T); assay: intrinsic antibacterial activity, MIC; format: cell-based; settings: Pseudomonas aeruginosa
[18] = system: P. aeruginosa Ps296 (AmpC, VIM-2, TEM-1); assay: intrinsic antibacterial activity, MIC; format: cell-based; settings: Pseudomonas aeruginosa
hERG potassium channel = hERG potassium channel (Homo sapiens, UniProt Q12809); assay: selectivity panel at 100 μM
Sequence of hERG potassium channel (Q12809 whole entry): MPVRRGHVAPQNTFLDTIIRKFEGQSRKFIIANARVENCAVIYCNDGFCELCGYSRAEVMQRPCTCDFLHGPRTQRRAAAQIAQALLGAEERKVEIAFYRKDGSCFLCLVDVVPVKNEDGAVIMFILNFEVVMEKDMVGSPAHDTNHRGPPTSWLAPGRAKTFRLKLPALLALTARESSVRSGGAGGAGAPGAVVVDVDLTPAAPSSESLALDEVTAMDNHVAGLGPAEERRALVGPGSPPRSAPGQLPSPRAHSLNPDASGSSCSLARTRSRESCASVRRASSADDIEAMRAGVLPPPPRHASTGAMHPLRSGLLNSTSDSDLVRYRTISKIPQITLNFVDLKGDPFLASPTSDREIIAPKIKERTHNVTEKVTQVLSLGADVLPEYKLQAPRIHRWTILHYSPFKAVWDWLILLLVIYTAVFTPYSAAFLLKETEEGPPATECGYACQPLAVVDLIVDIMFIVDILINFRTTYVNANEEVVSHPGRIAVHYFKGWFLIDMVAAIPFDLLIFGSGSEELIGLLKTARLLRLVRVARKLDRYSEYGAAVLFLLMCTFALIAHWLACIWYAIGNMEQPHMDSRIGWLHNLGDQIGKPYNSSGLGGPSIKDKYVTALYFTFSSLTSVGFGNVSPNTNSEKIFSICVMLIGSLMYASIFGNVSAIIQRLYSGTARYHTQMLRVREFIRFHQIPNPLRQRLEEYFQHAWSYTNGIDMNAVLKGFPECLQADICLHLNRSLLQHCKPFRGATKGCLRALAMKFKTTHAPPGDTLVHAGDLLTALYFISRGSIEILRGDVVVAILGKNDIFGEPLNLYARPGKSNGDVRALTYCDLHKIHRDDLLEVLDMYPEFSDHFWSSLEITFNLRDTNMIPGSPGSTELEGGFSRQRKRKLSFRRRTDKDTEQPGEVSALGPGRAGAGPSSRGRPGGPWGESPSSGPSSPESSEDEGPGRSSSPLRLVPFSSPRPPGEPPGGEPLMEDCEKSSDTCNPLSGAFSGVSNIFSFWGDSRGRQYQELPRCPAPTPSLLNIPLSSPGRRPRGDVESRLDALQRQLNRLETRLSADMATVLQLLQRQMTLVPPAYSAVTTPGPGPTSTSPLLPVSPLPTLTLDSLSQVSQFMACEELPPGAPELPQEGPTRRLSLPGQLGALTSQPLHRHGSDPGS
Description: as §1

[19] = system: panel of 50 human enzymes and receptors; assay: selectivity panel at 100 μM
Description: as §1

S. aureus 33591 (MRSA) = assay: intrinsic antibacterial activity, MIC; format: cell-based; settings: Staphylococcus aureus
[20] = system: K. pneumoniae A-1797 (KPC-2, VIM-4, CMY-4); assay: microbe, parasite or virus in culture; format: cell-based; settings: Klebsiella pneumoniae
cytochrome P450 3A4 = cytochrome P450 3A4 (Homo sapiens, UniProt P08684); assay: selectivity panel at 100 μM; format: in vitro ADME
Sequence of cytochrome P450 3A4 (P08684 whole entry): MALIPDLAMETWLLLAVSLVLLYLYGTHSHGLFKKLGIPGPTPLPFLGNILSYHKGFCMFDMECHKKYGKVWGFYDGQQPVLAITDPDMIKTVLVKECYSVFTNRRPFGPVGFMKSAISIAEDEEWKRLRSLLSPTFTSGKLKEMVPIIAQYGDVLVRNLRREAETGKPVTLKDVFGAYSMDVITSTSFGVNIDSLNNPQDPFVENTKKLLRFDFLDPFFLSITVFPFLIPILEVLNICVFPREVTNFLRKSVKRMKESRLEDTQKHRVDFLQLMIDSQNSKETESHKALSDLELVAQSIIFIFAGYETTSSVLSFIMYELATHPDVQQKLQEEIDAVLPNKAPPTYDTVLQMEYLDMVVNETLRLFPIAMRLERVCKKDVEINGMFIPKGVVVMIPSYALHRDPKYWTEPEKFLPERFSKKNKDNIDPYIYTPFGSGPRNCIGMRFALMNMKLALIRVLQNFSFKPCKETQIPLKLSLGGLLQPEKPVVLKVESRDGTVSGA
Description: as §1

cytochrome P450 2D6 = cytochrome P450 2D6 (Homo sapiens, UniProt P10635); assay: selectivity panel at 100 μM; format: in vitro ADME
Sequence of cytochrome P450 2D6 (P10635 whole entry): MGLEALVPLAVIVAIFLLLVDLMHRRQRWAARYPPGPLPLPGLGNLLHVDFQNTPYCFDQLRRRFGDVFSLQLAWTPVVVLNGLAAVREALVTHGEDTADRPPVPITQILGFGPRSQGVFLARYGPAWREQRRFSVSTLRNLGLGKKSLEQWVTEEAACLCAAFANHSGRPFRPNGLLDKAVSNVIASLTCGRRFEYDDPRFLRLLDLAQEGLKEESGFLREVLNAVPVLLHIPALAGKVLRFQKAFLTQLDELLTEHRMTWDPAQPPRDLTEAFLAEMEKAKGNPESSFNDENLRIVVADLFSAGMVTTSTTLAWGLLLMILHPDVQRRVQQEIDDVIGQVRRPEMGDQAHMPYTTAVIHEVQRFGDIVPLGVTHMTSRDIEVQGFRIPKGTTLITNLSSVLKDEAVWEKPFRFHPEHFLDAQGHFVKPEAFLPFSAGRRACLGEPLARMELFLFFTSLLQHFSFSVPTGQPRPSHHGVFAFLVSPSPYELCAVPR
Description: as §1

cytochrome P450 2C9 = cytochrome P450 2C9 (Homo sapiens, UniProt P11712); assay: selectivity panel at 100 μM; format: in vitro ADME
Description: as §1

cytochrome P450 2C19 = cytochrome P450 2C19 (Homo sapiens, UniProt P33261); assay: selectivity panel at 100 μM; format: in vitro ADME
Description: as §1

cytochrome P450 1A2 = cytochrome P450 1A2 (Homo sapiens, UniProt P05177); assay: selectivity panel at 100 μM; format: in vitro ADME
Description: as §1

[21] = system: K. pneumoniae 11978 (OXA-48); assay: intrinsic antibacterial activity, MIC; format: cell-based; settings: Klebsiella pneumoniae
IMP-1 [22] = biological target: T1, IMP-1; settings: read-out: IC50 IMP-1, literature value in parentheses; cited from earlier work
E. coli 25922 (W/T) = assay: intrinsic antibacterial activity, MIC; format: cell-based; settings: Escherichia coli
[23] = system: K. pneumoniae CI 09 (W/T); assay: intrinsic antibacterial activity, MIC; format: cell-based; settings: Klebsiella pneumoniae
[24] = system: 14 Gram-negative pathogens expressing class B enzymes (VIM-1, VIM-2, VIM-4, NDM-1); format: cell-based; settings: 14 MBL-producing strains
[25] = system: K. pneumoniae expressing KPC-2; assay: broth microdilution MIC, meropenem potentiation; format: cell-based; settings: Klebsiella pneumoniae, read-out: MIC of meropenem alone
[26] = system: K. pneumoniae expressing KPC-2 and VIM-4; assay: broth microdilution MIC, meropenem potentiation; format: cell-based; settings: Klebsiella pneumoniae, read-out: MIC of meropenem alone
[27] = system: K. pneumoniae expressing OXA-48; assay: broth microdilution MIC, meropenem potentiation; format: cell-based; settings: Klebsiella pneumoniae, read-out: MIC of meropenem alone
[28] = system: P. aeruginosa expressing VIM-2; assay: broth microdilution MIC, meropenem potentiation; format: cell-based; settings: Pseudomonas aeruginosa, read-out: MIC of meropenem alone

Sequence of NDM-1 (C7C422 29-270 limits assumed): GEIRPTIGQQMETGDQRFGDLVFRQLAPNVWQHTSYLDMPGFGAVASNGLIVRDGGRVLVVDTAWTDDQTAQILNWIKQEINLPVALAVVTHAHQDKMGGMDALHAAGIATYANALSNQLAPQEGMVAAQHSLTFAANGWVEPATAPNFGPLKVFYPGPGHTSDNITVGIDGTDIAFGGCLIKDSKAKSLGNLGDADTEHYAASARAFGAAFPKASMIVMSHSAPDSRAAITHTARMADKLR
T1 sequence (P52699 19-246 limits assumed): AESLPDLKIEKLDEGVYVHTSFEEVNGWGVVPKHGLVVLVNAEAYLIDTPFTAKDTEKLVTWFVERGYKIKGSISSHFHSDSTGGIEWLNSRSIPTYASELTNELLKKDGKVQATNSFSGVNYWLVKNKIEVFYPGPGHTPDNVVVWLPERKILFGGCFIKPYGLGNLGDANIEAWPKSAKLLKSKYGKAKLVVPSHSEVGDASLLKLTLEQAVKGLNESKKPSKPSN

SMILES: NC(=O)[C@@H]1CC[C@@H]2CN1C(=O)N2OS(=O)(=O)O [avibactam]
- IC50 (IMP-1 [1]): > 100 µM
- IC50 (NDM-1): > 100 µM

SMILES: CO/N=C(\C(=O)N[C@@H]1C(=O)N2C(C(=O)[O-])=C(C[N+]3(C)CCCC3)CS[C@H]12)c1csc(N)n1 [cefepime]
- MIC ([2]; read-out: FEP MIC): 128 µg/mL (≈ 266 µM)
- MIC ([3]; read-out: FEP MIC): > 128 µg/mL
- MIC ([4]; BAA1705, read-out: FEP MIC): 16 µg/mL (≈ 33.3 µM)
- MIC ([5]; read-out: FEP MIC): > 128 µg/mL
- log10 CFU/kidney [6]: 7.25 ± 0.16 log10 CFU/kidney
- MIC (K. pneumoniae (CTX-M-14)): 64 µg/mL (≈ 133 µM)
- MIC ([7]; read-out: FEP MIC): 32 µg/mL (≈ 66.6 µM)
- MIC (E. coli (CTX-M-15)): 128 µg/mL (≈ 266 µM)
- MIC ([8]; read-out: FEP MIC): > 128 µg/mL
- MIC ([9]; read-out: FEP MIC): 16 µg/mL (≈ 33.3 µM)
- log10 CFU/lung ([10]; at 24 h, cefepime alone 32, cefepime/VNRX-5133 32:16, Caz/Avi 32:8 mg/kg s.c. single dose): 9.27 ± 0.21 log10 CFU/lung
- reduction in viable bacterial counts in lung tissue ([10]; single subcutaneous dose, cefepime 32 mg/kg alone or cefepime/20 32 and 16 mg/kg, 24 h): not effective
- MIC (E. coli CDC-0452 (NDM); read-out: FEP MIC): 64 µg/mL (≈ 133 µM)

SMILES: O=C(O)[C@H]1/C(=C/CO)O[C@@H]2CC(=O)N21 [clavulanic acid]
- IC50 (IMP-1 [1]): > 100 µM
- IC50 (NDM-1): > 100 µM

SMILES: CC(=O)N[C@H]1Cc2cccc(C(=O)O)c2OB1O [compound 1]
- inhibition of the MBL VIM-2, in words (VIM-2): micromolar levels

SMILES: NCc1ccc(CC(=O)N[C@H]2Cc3cccc(C(=O)O)c3OB2O)cc1 [compound 3]
- inhibition of the MBL VIM-2, in words (VIM-2): micromolar levels

SMILES: NCCN[C@H]1CC[C@H](CC(=O)N[C@H]2Cc3cccc(C(=O)O)c3OB2O)CC1 [compound 20, (3R)-3-(2-{trans-4-[(2-Aminoethyl)amino]cyclohexyl}acetamido)-2-hydroxy-3,4-dihydro-2H-1,2-benzoxaborinine-8-carboxylic Acid]
- MIC (S. aureus 29213 (W/T)): > 128 µg/mL
- inhibition of subclass B3 MBL L1 (L1): did not inhibit
- MIC [11]: > 128 µg/mL
- IC50 (CphA): ~2.51 µM
- MIC [12]: > 128 µg/mL
- activity against neutrophil elastase 2 (neutrophil elastase 2): no significant activity
- activity against MMP-2 (MMP-2): no significant activity
- activity against MMP-1 (MMP-1): no significant activity
- activity against cathepsin G (cathepsin G): no significant activity
- activity against MMP-3 (MMP-3): no significant activity
- activity against MMP-9 (MMP-9): no significant activity
- activity against Factor Xa (Factor Xa): no significant activity
- MIC [13]: > 128 µg/mL
- MIC [14]: > 128 µg/mL
- toxicity in human primary proximal tubule cells [15]: No toxicity
- activity against chymotrypsin (chymotrypsin): no significant activity
- activity against trypsin (trypsin): no significant activity
- IC50 (OXA-48): 0.54 µM
- safety profile in the preclinical toxicity evaluation [16]: clean safety profile
- MIC [17]: > 128 µg/mL
- MIC [18]: > 128 µg/mL
- activity against hERG potassium channel (hERG potassium channel): no significant activity
- activity against panel of 50 human enzymes and receptors [19]: no significant activity
- MIC (S. aureus 33591 (MRSA)): > 128 µg/mL
- MIC [20]: > 128 µg/mL
- activity against cytochrome P450 3A4 (cytochrome P450 3A4): no significant activity
- activity against cytochrome P450 2D6 (cytochrome P450 2D6): no significant activity
- activity against cytochrome P450 2C9 (cytochrome P450 2C9): no significant activity
- activity against cytochrome P450 2C19 (cytochrome P450 2C19): no significant activity
- activity against cytochrome P450 1A2 (cytochrome P450 1A2): no significant activity
- MIC [21]: > 128 µg/mL
- IC50 (IMP-1 [22]): 2.51 µM
- MIC (E. coli 25922 (W/T)): > 128 µg/mL
- MIC [23]: > 128 µg/mL
- decrease in the MIC of cefepime on addition of BLI [24]: ≥ 512 fold

SMILES: C[C@@H](O)[C@H]1C(=O)N2C(C(=O)O)=C(S[C@@H]3CN[C@H](C(=O)N(C)C)C3)[C@H](C)[C@H]12 [meropenem]
- MIC [25]: ≥ 32 µg/mL
- MIC [26]: ≥ 32 µg/mL
- MIC [27]: ≥ 32 µg/mL
- MIC [28]: ≥ 32 µg/mL

SMILES: CCN1CCN(C(=O)N[C@@H](C(=O)N[C@@H]2C(=O)N3[C@@H]2SC(C)(C)[C@@H]3C(=O)O)c2ccccc2)C(=O)C1=O [piperacillin]
- MIC ([2]; read-out: PIP MIC): > 128 µg/mL
- MIC ([3]; read-out: PIP MIC): > 128 µg/mL
- MIC ([4]; BAA1705, read-out: PIP MIC): > 128 µg/mL
- MIC ([5]; read-out: PIP MIC): > 128 µg/mL
- MIC ([7]; read-out: PIP MIC): > 128 µg/mL
- MIC ([8]; read-out: PIP MIC): > 128 µg/mL
- MIC ([9]; read-out: PIP MIC): 64 µg/mL (≈ 124 µM)
- MIC (E. coli CDC-0452 (NDM); read-out: PIP MIC): > 128 µg/mL

SMILES: C[C@]1(Cn2ccnn2)[C@H](C(=O)O)N2C(=O)C[C@H]2S1(=O)=O [tazobactam]
- IC50 (IMP-1 [1]): > 100 µM
- IC50 (NDM-1): > 100 µM

SMILES: O=C(O)C[C@@H]1CC[C@H](NC(=O)Cc2cccs2)B(O)O1 [vaborbactam]
- IC50 (IMP-1 [1]): > 100 µM
- IC50 (NDM-1): > 100 µM
